Here are results for seven molecules from patent US20210403435A1, “HERBICIDAL COMPOUNDS” (SYNGENTA CROP PROTECTION AG, priority 2018, published 2021).

Common to all, as to test: Post-emergence efficacy, glasshouse, evaluated after 13 days
Format in all cases: in vivo

For assay [1], the system named is Amaranthus palmeri (AMAPA). To be noted: post-emergence application, 500 g/Ha, evaluated after 13 days; for pest or weed control at 500 g/ha: Amaranthus palmeri, 312 h, read-out: Control of weed species AMAPA (100=total damage to plant; 0=no damage to plant). The method, then: (§1) Seeds of a variety of test species were sown in standard soil in pots. After cultivation for 14 days (post-emergence) under controlled conditions in a glasshouse (at 24/16° C., day/night; 14 hours light; 65% humidity), the plants were sprayed with an aqueous spray solution derived from the dissolution of the technical active ingredient formula (I) in a small amount of acetone and a special solvent and emulsifier mixture referred to as IF50 (11.12% Emulsogen EL360 TM+44.44% N-methylpyrrolidone+44.44% Dowanol DPM glycol ether), to create a 50 g/l solution which was then diluted to required concentration using 0.25% or 1% Empicol ESC70 (Sodium lauryl ether sulphate)+1% ammonium sulphate as diluent.
(§2) The test plants were then grown in a glasshouse under controlled conditions (at 24/16° C., day/night; 14 hours light; 65% humidity) and watered twice daily. After 13 days the test was evaluated (100=total damage to plant; 0=no damage to plant).
(§3) Ipomoea hederacea (IPOHE), Euphorbia heterophylla (EPHHL), Chenopodium album (CHEAL), Amaranthus palmeri (AMAPA), Lolium perenne (LOLPE), Digitaria sanguinalis (DIGSA), Eleusine indica (ELEIN), Echinochloa crus-galli (ECHCG), Setaria faberi (SETFA)

Assay [2] deals with Chenopodium album (CHEAL). The conditions noted are these: post-emergence application, 500 g/Ha, evaluated after 13 days; for pest or weed control at 500 g/ha: Chenopodium album, 312 h, read-out: Control of weed species CHEAL (100=total damage to plant; 0=no damage to plant). As for the experimental part:
as §1, §2, §3

Assay [3] concerns Digitaria sanguinalis (DIGSA). The conditions noted are these: post-emergence application, 500 g/Ha, evaluated after 13 days; for pest or weed control at 500 g/ha: Digitaria sanguinalis, 312 h, read-out: Control of weed species DIGSA (100=total damage to plant; 0=no damage to plant). The method, then: as §1, §2, §3
Assay [4] relates to Echinochloa crus-galli (ECHCG). To be noted: post-emergence application, 500 g/Ha, evaluated after 13 days; for pest or weed control at 500 g/ha: Echinochloa crus-galli, 312 h, read-out: Control of weed species ECHCG (100=total damage to plant; 0=no damage to plant). The method, then: as §1, §2, §3
For assay [5], the system named is Eleusine indica (ELEIN). To be noted: post-emergence application, 500 g/Ha, evaluated after 13 days; for pest or weed control at 500 g/ha: Eleusine indica, 312 h, read-out: Control of weed species ELEIN (100=total damage to plant; 0=no damage to plant). As for the experimental part: as §1, §2, §3
The test system of assay [6] is Euphorbia heterophylla (EPHHL). To be noted: post-emergence application, 500 g/Ha, evaluated after 13 days; for pest or weed control at 500 g/ha: Euphorbia heterophylla, 312 h, read-out: Control of weed species EPHHL (100=total damage to plant; 0=no damage to plant). The method, then: as §1, §2, §3
For assay [7], the system named is Ipomoea hederacea (IPOHE). The conditions noted are these: post-emergence application, 500 g/Ha, evaluated after 13 days; for pest or weed control at 500 g/ha: Ipomoea hederacea, 312 h, read-out: Control of weed species IPOHE (100=total damage to plant; 0=no damage to plant). As for the experimental part:
as §1, §2, §3

For assay [8], the system named is Lolium perenne (LOLPE). To be noted: post-emergence application, 500 g/Ha, evaluated after 13 days; for pest or weed control at 500 g/ha: Lolium perenne, 312 h, read-out: Control of weed species LOLPE (100=total damage to plant; 0=no damage to plant). As for the experimental part: as §1, §2, §3
In assay [9] the test system is Setaria faberi (SETFA). The conditions noted are these: post-emergence application, 500 g/Ha, evaluated after 13 days; for pest or weed control at 500 g/ha: Setaria faberi, 312 h, read-out: Control of weed species SETFA (100=total damage to plant; 0=no damage to plant). As for the experimental part:
as §1, §2, §3

Each structure is given as a SMILES string.

As to `CC[S+]([O-])CCNC(=O)c1cc[n+](CCC(=O)O)nc1` (stereo not drawn) [Compound A117], the pest or weed control at 500 g/ha was 100% in assay [1]; 80% in assay [2]; 100% in assay [3]; 60% in [4]; 50% in assay [5]; 90% in assay [6]. The pest or weed control at 500 g/ha in [7] is 40%; in [8], 50%; in assay [9], 90%.

As to `CCSCCNC(=O)c1cc[n+](CCC(=O)O)nc1` [Compound A120], the pest or weed control at 500 g/ha in assay [1] is 100%; in [2], 80%; in assay [3] it was 100%; in assay [4], 50%; in [5], 50%; in assay [6] it was 90%. The pest or weed control at 500 g/ha was 10% in [7], 40% in assay [8] and 70% in assay [9].

With `COCCNC(=O)c1cc[n+](CCNS(=O)(=O)[O-])nc1` [Compound A139], the pest or weed control at 500 g/ha in assay [1] worked out at 90%; in [2] it was 100%; in assay [3] it was 90%; in [4], 70%; in assay [5] it was 100%; in assay [6], 80%. The pest or weed control at 500 g/ha in assay [7] was determined as 40%; in assay [8], 20%; in assay [9] it was 70%.

Consider `CCNC(=O)c1cc[n+](CC[C@H](N)C(=O)O)nc1` [Compound A91, [(1S)-1-carboxy-3-[4-(ethylcarbamoyl)pyridazin-1-ium-1-yl]propyl]ammonium dichloride], for which the pest or weed control at 500 g/ha in [1] amounted to 70%; in [2] it was 50%; in assay [3], 60%; in assay [4] it was 0%; in assay [5], 70%; in assay [6] it was 20%. Further, the figures for the pest or weed control at 500 g/ha in [7], in assay [8] and in [9] were 30%, 60% and 70%, respectively.

For `CCNC(=O)c1cc[n+](CCCOS(=O)(=O)[O-])nc1` [Compound A83], the “Control of weed species AMAPA (100=total damage to plant; 0=no damage to plant)” value in assay [1] was 90. In [2], the “Control of weed species CHEAL (100=total damage to plant; 0=no damage to plant)” value stood at 90. For the same molecule, the “Control of weed species DIGSA (100=total damage to plant; 0=no damage to plant)” value in assay [3] was 90. Besides, in assay [4], the “Control of weed species ECHCG (100=total damage to plant; 0=no damage to plant)” value amounted to 90. Further, the “Control of weed species ELEIN (100=total damage to plant; 0=no damage to plant)” value in [5] was 90. The “Control of weed species EPHHL (100=total damage to plant; 0=no damage to plant)” value in [6] was 90. Moreover, in assay [7], the “Control of weed species IPOHE (100=total damage to plant; 0=no damage to plant)” value amounted to 80. In addition, the “Control of weed species LOLPE (100=total damage to plant; 0=no damage to plant)” value in assay [8] stood at 80. Besides, the “Control of weed species SETFA (100=total damage to plant; 0=no damage to plant)” value in assay [9] amounted to 60.

Take `CS(=O)(=O)CCNC(=O)c1cc[n+](CCC(=O)O)nc1` [Compound A104]: the pest or weed control at 500 g/ha was found to be 100% in assay [1]; 100% in [2]; 100% in assay [3]; 70% in assay [4]; 100% in assay [5]; 100% in assay [6]. In addition, the figures for the pest or weed control at 500 g/ha in assay [7], in [8] and in assay [9] were 80%, 70% and 100%, respectively.

Turning to `O=C(NC1CC1)c1cc[n+](CCCOS(=O)(=O)[O-])nc1` [Compound A126], the pest or weed control at 500 g/ha in assay [1] was determined as 10%; in [2], 60%; in assay [3] it was 40%; in assay [4] it was 60%; in assay [5], 40%; in [6] it was 60%. The pest or weed control at 500 g/ha worked out at 50% in [7], 50% in [8] and 70% in assay [9].
